Experimental data reported in US20230381237A1, “CHIMERIC ANTIGEN RECEPTOR (CAR) T-CELL ADJUVANT THERAPIES” (priority 2022, published 2023).
“Also recorded” adds a separate entry of the source.

Assays:
[1] = test system: PBMCs activated through TLR-3; test: TNFα production in Poly r(I:C)-activated PBMCs (sandwich ELISA); conditions: 0.3 nM to 750 nM
[2] = test system: TNF-α; conditions: patients with diabetes; doses within dose equivalencies of CTO1681 MAD study; cited from earlier work
[3] = Example 5: treatment with monitored delay period; format: in vivo, human; conditions: acute myeloid leukemia; start upon cytokine increase, ten days
Description: Both groups will receive infusion of CAR T-cells. Cytokines will be monitored daily for both groups. […] Treatment with CTO1681 will continue daily for ten days.

[4] = Phase 1 multiple ascending, repeat-dosing study in healthy volunteers
[5] = Body weight and tolerability in African green monkey PK study; format: in vivo, African green monkeys
Experimental: (§1) Individual Animal Metrics—Nine African green monkeys (approximately 16 years old, wild-caught) were used in this PK study. Per requirements of the CDC, all animals were quarantined at a CDC facility for 30 days followed by a 90-day quarantine/acclimation period at TNPRC prior to study initiation. Animals were dosed three times daily (TID) by oral gavage in three separate rounds of the study (ascending dose concentrations). Individual animal weights were tracked throughout the entirety of the study. On average, weights decreased 5.5% across all cohorts, with no individual animal losing more than 8.7% of its initial body weight over the course of the study. No difference in mean weight change is observed between male and female monkeys. […] Ultimately, the animals handled the schedule well, all remaining in good health with a weight loss of no more than what was expected by the veterinary staff with the schedule intensity.

[6] = test system: influenza (H5N1); conditions: in vivo; cited from earlier work
[7] = test system: influenza (H1N1); test: In vivo lethal influenza H1N1 studies, cytokine levels; design: species or system mice
[8] = Single dose PK study in BALB/C mice; format: in vivo, murine (BALB/C)
[9] = test system: CD19 CAR T-cells co-cultured with CD19+Raji lymphoma target cells; test: CD19 CAR T-cell / Raji co-culture, pro-inflammatory cytokine levels; format: cell-based, human
[10] = Food effect; format: in vivo; conditions: oral tablets
[11] = Pharmacokinetics in African Green Monkeys, TID oral gavage; format: in vivo
Experimental: as §1
Individual animal profiles were evaluated following each dose on a single day of dosing. Single day TID doses were administered using the same animals following a minimum of 7 days wash out between increasing dose level rounds, where Round 1 was TID 0.008 mg/kg/day (0.00267 mg/kg/dose), Round 2 was TID 0.04 mg/kg/day (0.0133 mg/kg/dose), and Round 3 was TID 0.2 mg/kg/day (0.0667 mg/kg/dose). Wash out (negative) plasma levels of CTO1681 between dose rounds were confirmed. […] Samples were collected at the following target timepoints relative to the first TID dose of the day: 0.25, 0.5, 1, 2, 4, and 8 hours (prior to second daily dose), 8.25, 8.5, 9, 10, 12, and 16 hours (prior to third daily dose), 16.25, 16.5, 17, 18, 20, 24, 28 and 40 hours after TID test item administration by oral gavage dosing, with the three daily doses administered at 0, 8 and 16 h in 9 animals, staggered for n=3 collection after administration of each daily dose. […]

[12] = test system: CD19+Raji tumor cells; test: CD19 CAR T-cell killing of Raji target cells (flow cytometry, 7-AAD); format: cell-based, human; conditions: in vitro; Effector:Target 10:1, 5:1, 1:1; all concentrations; monosodium salt
[13] = Example 4: treatment with predetermined delay period; format: in vivo, human; conditions: mantle cell lymphoma; start three days after CAR T-cells, eleven days
Description: Both groups will receive infusion of CAR T-cells. […] Cytokines will be monitored daily for both groups.

[14] = Example 3: human treatment with no delay period; format: in vivo; conditions: B-cell lymphoma, daily for 7-15 days
Description: Both groups will receive infusion of CAR T-cells. […] Clinical signs of CRS and cytokines will be monitored daily for both groups.

[15] = Example 2: mouse model of CAR T-cell therapy induced CRS; conditions: IP, BID for 7 days
[16] = test system: circulating cytokines (TNFα); test: Serum cytokine measurements after CTO1681 treatment in African Green Monkeys; format: in vivo; conditions: highest dose of CTO1681 compared to the other two cohorts
Description: Longitudinal serum samples were taken through the course of the observation period. At the end of all three cohorts serum samples were utilized to determine circulating concentrations of 12 different cytokines. Representative data is pictured below for TNFα, a key central cytokine in CRS (FIG. 6). […] Overall there appears to be a dose-dependent trend to cytokine reduction.

[17] = BID dose PK study in NSG mice (CAS-2201); format: in vivo, murine (NSG)
[18] = test system: Raji-luc tumor cells; test: CAR T-cell efficacy in NSG tumor bearing mice; format: in vivo
Experimental: Human T-cells expressing CD19-CD28-CD3Z CAR construct was used in this experiment.
6-7 week old NSG™ (NOD SCID gamma) mice were engrafted with 1×10^6 luciferase (luc) expressing Raji tumor cells (herein referred to as “Raji-luc” tumor cells) each on Day 1 to allow for tumor growth over a 7-day period prior to the commencement of the treatment. CAR T-cell infusion was performed intravenously via lateral tail vein on (5×10^6 CD19 CAR T-cells generated from healthy donors). NSG mice are severely immunodeficient, which facilitates ready tumor engraftment and subsequent clearance due to CAR T-cells can be measured.
Tumor growth after engraftment and subsequent clearance were monitored once weekly (starting on Day 7) using IVIS imaging to detect luciferase signal in living mice. […] CTO1681 doses were selected based on the pharmacokinetic profile of the drug in mice. Control groups included mice receiving Raji-luc tumor cells without CAR T-cell treatment, mice receiving Raji-luc tumor cells and a CAR T-cell infusion, and mice receiving Raji-luc tumor cells with vehicle treatments. Mice were monitored for body temperature and health evaluations (weight, movement, posture, fur condition, etc.) throughout the entire study.

[19] = CytoAgents in vivo influenza (H1N1) studies
[20] = 10:1 ratio of Effectors to Target cells, CTO1681 0.36-225 nM, 24 hours

CC#CCC(C)[C@H](O)/C=C/[C@@H]1[C@H]2c3cccc(CCCC(=O)O)c3O[C@H]2C[C@H]1O (some centres unmarked) [Beraprost, reference compound]
EC50 ([1]; PBMC, Replicate 1): 17.1 nM
EC50 ([1]; PBMC, Replicate 2): 8.64 nM
EC50 ([1]; PBMC, Replicate 3): 17.1 nM

CC#CCC(C)C(O)C=CC1C(O)CC2Oc3c(CCCC(=O)[O-])cccc3C21.[Na+] (centres unmarked) [beraprost sodium, 2,3,3a,8b-tetrahydro-2-hydroxyl-1-(3-hydroxyl-4-methyl-1-octen-6-ynyl)-1H-cyclopenta[b]benzofuran-5-butanoic acid, sodium salt]
TNF-α [2]: significant reductions

CC#CC[C@H](C)[C@H](O)/C=C/[C@@H]1[C@H]2c3cccc(CCCC(=O)[O-])c3O[C@H]2C[C@H]1O.[Na+] [CTO1681, (+)-[1R, 2R, 3aS, 8bS]-2,3,3a,8b-tetrahydro-2-hydroxy-1-[(E)-(3S,4S)-3-hydroxy-4-methyl-1-octen-6-ynyl)-1Hcyclopenta[b]benzofuran-5-butanoic acid, monosodium salt]
CRS symptoms vs control group [3]: reduced CRS symptoms
Undesired cytokine production vs control group [3]: lower undesired cytokine production
Cytokine levels (panel of 27 cytokines) [4]: no clinically significant decreases
SAEs, TEAEs of special interest, TEAEs leading to study discontinuation or dose reduction ([4]; 15 to 60 μg/day, 7 days): No SAEs
Treatment-emergent AEs, mild ([4]; 15 to 60 μg/day, 7 days): 62 AEs
Treatment-emergent AEs, moderate ([4]; 15 to 60 μg/day, 7 days): 4 AEs
Tolerability / toxicities or negative health effects ([5]; TID oral administration, 0.008-0.2 mg/kg/day, monosodium salt): overall tolerable; also recorded: no toxicities or negative health effects
Average weight decrease across all cohorts ([5]; entire study): 5.5%
Largest individual loss of initial body weight ([5]; entire study): ≤ 8.7%
IL-2 level [6]: reduced
IL-6 level [6]: reduced
IL-8 level [6]: reduced
IL-10 level [6]: reduced
IL-2 level [7, 19]: reduced
IL-6 level [7, 19]: reduced
IL-10 level [7, 19]: reduced
IFN-α concentrations ([7]; lethal H1N1 influenza infections): no significant repression
T1/2 [8]: 1 to 2 h
Maximum reduction of IFN-γ [9, 20]: ~26%
Maximum reduction of TL-6 [9, 20]: ~23%
Maximum reduction of TNF-α [9, 20]: approximately 50%
Levels of IL-6 ([9]; CAR T-cells and Raji cells at a 10:1 ratio (FIG. 1A)): dose-dependently lowers
Levels of TNF-α ([9]; CAR T-cells and Raji cells at a 10:1 ratio (FIG. 1B)): dose-dependently lowers
Levels of IFN-γ ([9]; CAR T-cells and Raji cells at a 10:1 ratio (FIG. 1C)): dose-dependently lowers
Food effect [10]: positive food effect
Tmax ([11]; round 1, 0.008 mg/kg/day TID oral): 1.5 h
Tmax ([11]; round 2, 0.04 mg/kg/day TID oral): 2.0 h
Tmax ([11]; round 3, 0.2 mg/kg/day TID oral): 2.1 h
Effect on tumor/target cell killing of CD19-directed CAR T-cells [12]: absence of an effect; also recorded: did not impact or interfere
CRS symptoms vs control group [13]: reduced CRS symptoms
Undesired cytokine production vs control group [13]: lower undesired cytokine production
EC50 ([1]; Replicate 1): 5.7 nM
EC50 ([1]; Replicate 2): 4.14 nM
EC50 ([1]; Replicate 3): 1.95 nM
CRS symptoms vs control group [14]: reduced CRS symptoms
Undesired cytokine production vs control group [14]: lower undesired cytokine production
Comparison with dexamethasone [15]: superior to dexamethasone
Survival benefits over dexamethasone [15]: greater survival benefits
Cytokine levels in serum (TNFα representative) [16]: remarkable and consistent reduction
Elimination half-life ([17]; calculated using first daily dose, range of 6-12 h (Rsq=0.40)): 1.8 h
T1/2 of BID exposure ([17]; two times a day (BID) dose): approximately 5 hours
Effect on CD19 CAR T-cell activity (reduction of lymphoma tumor burden) ([18]; 0.3, 0.2 or 0.15 mg/kg/d BID for 14 days, Day 15, monosodium salt): does not interfere; also recorded: did not affect
Clinical morbidities, including weight loss or limb movement ([18]; NSG mice, with CAR T-cell therapy): did not cause any increase
